Reference: publication PMC8846605 (European journal of medicinal chemistry, 2021)

Legend:
MCF7 cells = experiment: CS-BLI cell viability assay, MCF7; type: cell-based
[1] = target: eIF4E (GST-eIF4E) / fluorescein-labelled eIF4G peptide (Homo sapiens, UniProt P06730); experiment: Fluorescence polarization assay for displacement of eIF4G peptide from eIF4E; type: binding; details: three concentrations: 33, 100 and 300 μM
Kelly cells proteome = experiment: Global quantitative proteomics in Kelly cells; type: cell-based, human; details: 1 μM, 5 hours, relative to DMSO
Cereblon (CRBN) = Cereblon (CRBN) (Homo sapiens, UniProt Q96SW2); experiment: Cellular Cereblon engagement assay; type: cell-based
GB1-eIF4E = GB1-eIF4E (Homo sapiens, UniProt P06730); experiment: Solution NMR titration; details: 15N-labelled GB1-eIF4E 100 μM, compound 50, 100 and 300 μM
eIF4E = eIF4E (Homo sapiens, UniProt P06730); experiment: eIF4E degradation in HEK293T cells by immunoblotting; type: cell-based; details: 0.1-10 μM for 24 h, and 1 μM for 0.5 h to 24 h
Chain of eIF4E (P06730 whole entry): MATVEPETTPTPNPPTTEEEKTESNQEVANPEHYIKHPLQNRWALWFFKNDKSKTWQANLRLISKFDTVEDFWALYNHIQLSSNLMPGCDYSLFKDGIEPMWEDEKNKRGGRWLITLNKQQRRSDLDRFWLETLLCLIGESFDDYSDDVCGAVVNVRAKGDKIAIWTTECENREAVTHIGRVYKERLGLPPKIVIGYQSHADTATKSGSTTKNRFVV

Chain of eIF4E (GST-eIF4E) / fluorescein-labelled eIF4G peptide (P06730 whole entry): as above
Chain of GB1-eIF4E (P06730 whole entry): as above
Chain of Cereblon (CRBN) (Q96SW2 whole entry): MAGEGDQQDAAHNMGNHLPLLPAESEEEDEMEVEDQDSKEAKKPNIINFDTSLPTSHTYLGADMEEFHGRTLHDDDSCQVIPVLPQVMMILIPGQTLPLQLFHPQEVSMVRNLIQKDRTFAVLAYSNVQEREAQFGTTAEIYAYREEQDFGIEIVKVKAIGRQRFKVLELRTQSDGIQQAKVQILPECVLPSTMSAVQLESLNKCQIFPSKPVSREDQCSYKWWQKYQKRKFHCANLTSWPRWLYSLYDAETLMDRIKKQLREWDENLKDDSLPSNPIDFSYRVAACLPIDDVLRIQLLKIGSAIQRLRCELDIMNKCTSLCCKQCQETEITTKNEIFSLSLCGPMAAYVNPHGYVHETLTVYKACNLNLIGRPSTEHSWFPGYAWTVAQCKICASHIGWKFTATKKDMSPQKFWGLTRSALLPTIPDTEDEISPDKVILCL

`O=C(O)C(Cc1ccccc1[N+](=O)[O-])=NNc1nc(-c2ccc(Cl)c(Cl)c2)cs1` [4EGI-1, reference compound] was tested, and the “decrease in viability (IC50) at 72 h as compared to 24 h” value (MCF7 cells) was 2 fold.
In the case of `O=C(COc1cccc2c1C(=O)N(C1CCC(=O)NC1=O)C2=O)NCCCCNC(=O)Cc1sc(N/N=C(\Cc2ccccc2[N+](=O)[O-])C(=O)O)nc1-c1ccc(Cl)c(Cl)c1` (centres unmarked) [d4E-1], the “displacement of the 4G peptide compared with 4EGI-1” value [1] is reported as “displaced the 4G peptide in a similar manner”.
With `C/C(=N\Nc1nc(-c2ccc(-c3ccccc3)cc2)cs1)C(=O)NCCCCNc1cccc2c1C(=O)N(C1CCC(=O)NC1=O)C2=O` (centres unmarked) [d4E-2] the “change in protein expression, IMiD neo-substrates” value (Kelly cells proteome) was “downregulation of C2H2 zinc finger targets, SALL4, ZNF692 and ZNF827”.
`O=C1CCC(N2C(=O)c3cccc(NCCCCNC(=O)/C(=N\Nc4nc(-c5ccc(-c6ccccc6)cc5)cs4)c4ccccc4[N+](=O)[O-])c3C2=O)C(=O)N1` (centres unmarked) [d4E-3] was tested, and the “fold less active than d4E-2 in cellular CRBN engagement” value (Cereblon (CRBN)) was “approximately 8 fold”.
With `C/C(=N\Nc1nc(-c2ccc(-c3ccccc3)cc2)cs1)C(=O)NCCNc1cccc2c1C(=O)N(C1CCC(=O)NC1=O)C2=O` (centres unmarked) [d4E-4] the “chemical shift perturbations (CSPs) on titration” value (GB1-eIF4E) was “Significant CSPs were observed in both cases at the binding interface” and the “degradation of eIF4E by immunoblotting” value (eIF4E) was “neither experiment showed significant degradation of eIF4E”.
For `C/C(=N\Nc1nc(-c2ccc(Cl)c(Cl)c2)c(CC(=O)NCCNc2cccc3c2C(=O)N(C2CCC(=O)NC2=O)C3=O)s1)C(=O)OCOC(=O)C(C)(C)C` (centres unmarked) [d4E-6], the “degradation of eIF4E by immunoblotting” value (eIF4E) was “neither experiment showed significant degradation of eIF4E”.
For `O=C(O)/C(Cc1ccccc1[N+](=O)[O-])=N\Nc1nc(-c2ccc(-c3ccccc3)cc2)cs1` [i4EG-BiP], the “decrease in viability (IC50) at 72 h as compared to 24 h” value (MCF7 cells) was “more than 3 fold”.
